Source: ChEMBL document CHEMBL1201862, “PubChem BioAssay data set” (2004)
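Compound exposure: 48 hours, 5 concentrations, 96-well plates. GI50: concentration for 50% inhibition of growth.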 The source made the active and inactive calls. Rule as the data show it: active = GI50 up to about 1.1 µM and inactive = higher.

Columns and labels:
Assay in all cases: DTP human tumour cell line panel, 48 h
IGROV-1 = test system: IGROV-1
CCRF-CEM = test system: CCRF-CEM
ACHN = test system: ACHN
Malme-3M = test system: Malme-3M
SNB-75 = test system: SNB-75
RXF 631 = test system: RXF 631
TK-10 = test system: TK-10
XF498 = test system: XF498
DMS-273 = test system: DMS-273
SK-MEL-2 = test system: SK-MEL-2
M14 = test system: M14
OVCAR-5 = test system: OVCAR-5
SN12C = test system: SN12C
HT-29 = test system: HT-29
SK-MEL-5 = test system: SK-MEL-5
U-251 = test system: U-251
LXFL 529 = test system: LXFL 529
SF-539 = test system: SF-539
EKVX = test system: EKVX
MOLT-4 = test system: MOLT-4
LOX IMVI = test system: LOX IMVI
HCT-116 = test system: HCT-116
K562 = test system: K562
RXF 393 = test system: RXF 393
OVCAR-8 = test system: OVCAR-8
SK-OV-3 = test system: SK-OV-3
HCC 2998 = test system: HCC 2998
SF-268 = test system: SF-268
SNB-78 = test system: SNB-78
M19-MEL = test system: M19-MEL
OVCAR-3 = test system: OVCAR-3
CAKI-1 = test system: CAKI-1
HOP-92 = test system: HOP-92
UACC-257 = test system: UACC-257
COLO 205 = test system: COLO 205
DLD-1 = test system: DLD-1
OVCAR-4 = test system: OVCAR-4
NCI-H23 = test system: NCI-H23
HCT-15 = test system: HCT-15
HOP-62 = test system: HOP-62
UACC-62 = test system: UACC-62
786-0 = test system: 786-0
A549 = test system: A549
HL-60 = test system: HL-60
UO-31 = test system: UO-31
RPMI-8226 = test system: RPMI-8226
SNB-19 = test system: SNB-19
A498 = test system: A498
KM-20L2 = test system: KM-20L2
HOP-18 = test system: HOP-18
SF-295 = test system: SF-295
KM12 = test system: KM12
NCI-H460 = test system: NCI-H460
SW-620 = test system: SW-620
NCI-H522 = test system: NCI-H522
SK-MEL-28 = test system: SK-MEL-28
DMS-114 = test system: DMS-114

## COC(=O)CSc1ccccc1
IGROV-1
  GI50: > 100 µM (inactive)
CCRF-CEM
  GI50: > 100 µM (inactive)
ACHN
  GI50: > 100 µM (inactive)
Malme-3M
  GI50: 25.4 µM (inactive)
SNB-75
  GI50: > 100 µM (inactive)
RXF 631
  GI50: > 100 µM (inactive)
TK-10
  GI50: > 100 µM (inactive)
XF498
  GI50: > 100 µM (inactive)
DMS-273
  GI50: > 100 µM (inactive)
SK-MEL-2
  GI50: 11.5 µM (inactive)
M14
  GI50: > 100 µM (inactive)
OVCAR-5
  GI50: > 100 µM (inactive)
SN12C
  GI50: > 100 µM (inactive)
HT-29
  GI50: > 100 µM (inactive)
SK-MEL-5
  GI50: > 100 µM (inactive)
U-251
  GI50: > 100 µM (inactive)
LXFL 529
  GI50: > 100 µM (inactive)
SF-539
  GI50: > 100 µM (inactive)
EKVX
  GI50: > 100 µM (inactive)
MOLT-4
  GI50: > 100 µM (inactive)
LOX IMVI
  GI50: > 100 µM (inactive)
HCT-116
  GI50: > 100 µM (inactive)
K562
  GI50: > 100 µM (inactive)
RXF 393
  GI50: > 100 µM (inactive)
OVCAR-8
  GI50: > 100 µM (inactive)
SK-OV-3
  GI50: > 100 µM (inactive)
HCC 2998
  GI50: > 100 µM (inactive)
SF-268
  GI50: > 100 µM (inactive)
SNB-78
  GI50: > 100 µM (inactive)
M19-MEL
  GI50: > 100 µM (inactive)
OVCAR-3
  GI50: > 100 µM (inactive)
CAKI-1
  GI50: > 100 µM (inactive)
HOP-92
  GI50: 50.9 µM (inactive)
UACC-257
  GI50: > 100 µM (inactive)
COLO 205
  GI50: > 100 µM (inactive)
DLD-1
  GI50: > 100 µM (inactive)
OVCAR-4
  GI50: > 100 µM (inactive)
NCI-H23
  GI50: > 100 µM (inactive)
HCT-15
  GI50: > 100 µM
HOP-62
  GI50: > 100 µM (inactive)
UACC-62
  GI50: > 100 µM (inactive)
786-0
  GI50: 11.6 µM (inactive)
A549
  GI50: > 100 µM (inactive)
HL-60
  GI50: > 100 µM (inactive)
UO-31
  GI50: > 100 µM (inactive)
RPMI-8226
  GI50: > 100 µM (inactive)
SNB-19
  GI50: > 100 µM (inactive)
A498
  GI50: > 100 µM (inactive)
KM-20L2
  GI50: > 100 µM (inactive)
HOP-18
  GI50: > 100 µM (inactive)
SF-295
  GI50: > 100 µM (inactive)
KM12
  GI50: > 100 µM (inactive)
NCI-H460
  GI50: > 100 µM (inactive)
SW-620
  GI50: > 100 µM (inactive)

## O=[N+]([O-])c1ccc(Cl)cc1C1SCc2nc3ccccc3n21 (stereo not drawn)
IGROV-1
  GI50: 80.5 µM (inactive)
CCRF-CEM
  GI50: 34.8 µM (inactive)
ACHN
  GI50: 14.3 µM (inactive)
Malme-3M
  GI50: 99.8 µM (inactive)
SNB-75
  GI50: 16.3 µM (inactive)
NCI-H522
  GI50: 24.4 µM (inactive)
RXF 631
  GI50: 37.1 µM (inactive)
TK-10
  GI50: 87.5 µM (inactive)
XF498
  GI50: 65.5 µM (inactive)
DMS-273
  GI50: 31.6 µM (inactive)
SK-MEL-2
  GI50: 62.4 µM (inactive)
M14
  GI50: 31.2 µM (inactive)
SN12C
  GI50: 54.1 µM (inactive)
HT-29
  GI50: > 100 µM (inactive)
SK-MEL-5
  GI50: 27.7 µM (inactive)
U-251
  GI50: 40.4 µM (inactive)
LXFL 529
  GI50: 48.3 µM (inactive)
SF-539
  GI50: > 100 µM (inactive)
EKVX
  GI50: 69.7 µM (inactive)
MOLT-4
  GI50: 36.3 µM (inactive)
HCT-116
  GI50: 38.3 µM (inactive)
SK-MEL-28
  GI50: > 100 µM (inactive)
K562
  GI50: 33.1 µM (inactive)
RXF 393
  GI50: 26.6 µM (inactive)
OVCAR-8
  GI50: 60.8 µM (inactive)
SK-OV-3
  GI50: 62.8 µM (inactive)
DMS-114
  GI50: 35.6 µM (inactive)
HCC 2998
  GI50: 86.3 µM (inactive)
SF-268
  GI50: 42.1 µM (inactive)
SNB-78
  GI50: 42.9 µM (inactive)
M19-MEL
  GI50: 61.7 µM (inactive)
OVCAR-3
  GI50: 54.1 µM (inactive)
CAKI-1
  GI50: 33 µM (inactive)
UACC-257
  GI50: 45.2 µM (inactive)
COLO 205
  GI50: 61.1 µM (inactive)
DLD-1
  GI50: 37.2 µM (inactive)
OVCAR-4
  GI50: 44.4 µM (inactive)
NCI-H23
  GI50: 27.6 µM (inactive)
HCT-15
  GI50: 31 µM
HOP-62
  GI50: > 100 µM (inactive)
UACC-62
  GI50: 61.8 µM (inactive)
786-0
  GI50: 53 µM (inactive)
A549
  GI50: 41.7 µM (inactive)
HL-60
  GI50: 31 µM (inactive)
UO-31
  GI50: 22.1 µM (inactive)
RPMI-8226
  GI50: 31.2 µM (inactive)
SNB-19
  GI50: 74.6 µM (inactive)
A498
  GI50: 23.6 µM (inactive)
KM-20L2
  GI50: > 100 µM (inactive)
HOP-18
  GI50: 13 µM (inactive)
SF-295
  GI50: 85.7 µM (inactive)
KM12
  GI50: 41.9 µM (inactive)
NCI-H460
  GI50: 5.3 µM (inactive)
SW-620
  GI50: 50.6 µM (inactive)
